How the values were obtained:
Escherichia coli [1] = test: Inhibition of planktonic growth of Escherichia coli TG1 after 24 hrs; format: organism-based; conditions: TG1, 24 h
Escherichia coli [2] = test: Antibiofilm activity against Escherichia coli TG1 after 24 hrs by crystal violet staining based assay; format: functional, organism-based; conditions: TG1, 24 h
Staphylococcus aureus [3] = test: Antibiofilm activity against Staphylococcus aureus SH1000 after 48 hrs by crystal violet staining based assay; format: functional, organism-based; conditions: SH1000, 48 h
Salmonella typhimurium [4] = test: Inhibition of planktonic growth of Salmonella typhimurium ATCC 14028 after 24 hrs; format: organism-based, Salmonella enterica subsp. enterica serovar Typhimurium; conditions: Salmonella enterica, ATCC 14028, 24 h
Salmonella typhimurium [5] = test: Antibiofilm activity against Salmonella typhimurium ATCC 14028 after 24 hrs by crystal violet staining based assay; format: functional, organism-based, Salmonella enterica subsp. enterica serovar Typhimurium; conditions: Salmonella enterica, ATCC 14028, 24 h
Pseudomonas aeruginosa = test: Antibiofilm activity against Pseudomonas aeruginosa PA14 after 24 hrs by crystal violet staining based assay; format: functional, organism-based; conditions: PA14, 24 h
Staphylococcus aureus [6] = test: Inhibition of planktonic growth of Staphylococcus aureus SH1000 after 48 hrs; format: organism-based; conditions: SH1000, 48 h

SMILES | IC50 (Escherichia coli [2]) | IC50 (Staphylococcus aureus [3]) | IC50 (Salmonella typhimurium [5]) | IC50 (Pseudomonas aeruginosa) | IC50 (Escherichia coli [1]) | IC50 (Salmonella typhimurium [4]) | IC50 (Staphylococcus aureus [6])
Clc1ccc(-c2cnc(NCCCCCCCCNc3ncc(-c4ccc(Cl)cc4)[nH]3)[nH]2)cc1 | 42.7 µM | 300 µM | 8.3 µM | 31.6 µM | 44 µM | 47.8 µM | 121 µM
Fc1ccc(-c2cnc(NCCCCCNc3ncc(-c4ccc(F)cc4)[nH]3)[nH]2)cc1 | 7 µM | 150 µM | 7.6 µM | 1.7 µM | 16.4 µM | 85.4 µM | 105 µM
Nc1ncc(-c2ccc(Cl)cc2)n1CCCCCn1c(-c2ccc(Cl)cc2)cnc1N | 12 µM | 13.5 µM | 5.1 µM | 6.6 µM | 13.4 µM | 19.1 µM | 24.3 µM
Brc1ccc(-c2cnc(NCCCCCCCCNc3ncc(-c4ccc(Br)cc4)[nH]3)[nH]2)cc1 | 90.6 µM | 68.1 µM | 31.3 µM | 893 µM | 136 µM | > 800 µM | 69.3 µM
Clc1ccc(-c2cnc(NCCCCCCCNc3ncc(-c4ccc(Cl)cc4)[nH]3)[nH]2)cc1 | 35 µM | 150 µM | 23 µM | 120 µM | 29.8 µM | > 800 µM | 141 µM
Brc1ccc(-c2cnc(NCCCCCCNc3ncc(-c4ccc(Br)cc4)[nH]3)[nH]2)cc1 | 8.3 µM | 53.3 µM | 15.7 µM | 8.8 µM | 6.43 µM | > 800 µM | 93.8 µM
Nc1ncc(-c2ccc(F)cc2)[nH]1 | 75.5 µM | > 800 µM |  |  |  |  | 
Nc1ncc(-c2ccc(F)cc2)n1CCCCCn1c(-c2ccc(F)cc2)cnc1N | 7.5 µM | 60.7 µM | 4.8 µM | 12 µM | 3.74 µM | 85.4 µM | 59.7 µM
Brc1ccc(-c2cnc(NCCCCCNc3ncc(-c4ccc(Br)cc4)[nH]3)[nH]2)cc1 | 10.5 µM | 12 µM | 6.5 µM | 13.4 µM | 22.4 µM | 35.9 µM | 26.4 µM
Brc1ccc(-c2cnc(NCCCCNc3ncc(-c4ccc(Br)cc4)[nH]3)[nH]2)cc1 | 7.2 µM | 300 µM | 13.2 µM | 11.2 µM | > 100 µM | > 800 µM | 145 µM
Nc1ncc(-c2ccccc2)n1CCCCn1c(-c2ccccc2)cnc1N | 27.5 µM | 275 µM | 13.5 µM | 23.6 µM | 50.4 µM | 59.3 µM | 255 µM
Clc1ccc(-c2cnc(NCCCCNc3ncc(-c4ccc(Cl)cc4)[nH]3)[nH]2)cc1 | 9.3 µM | 200 µM | 12.3 µM | 13 µM | 31.6 µM | 41.6 µM | 158 µM
c1ccc(-c2cnc(NCCCCCCCCNc3ncc(-c4ccccc4)[nH]3)[nH]2)cc1 | 19.3 µM | 300 µM | 11.2 µM | 21.3 µM | 48.7 µM | > 800 µM | 230 µM
Clc1ccc(-c2cnc(NCCCCCCNc3ncc(-c4ccc(Cl)cc4)[nH]3)[nH]2)cc1 | 24.8 µM | 150 µM | 30.5 µM | 80.4 µM | 96.6 µM | 529 µM | 327 µM
c1ccc(-c2cnc(NCCCCCCCNc3ncc(-c4ccccc4)[nH]3)[nH]2)cc1 | 11.8 µM | 400 µM | 12.6 µM | 4.6 µM | 12.9 µM | > 800 µM | 689 µM
Nc1ncc(-c2ccc(F)cc2)n1CCCCCCCn1c(-c2ccc(F)cc2)cnc1N | 7.2 µM | 23.7 µM | 2.9 µM | 7.1 µM | > 100 µM | 50 µM | 34 µM
Nc1ncc(-c2ccc(Cl)cc2)n1CCCCn1c(-c2ccc(Cl)cc2)cnc1N | 12.3 µM | 180 µM | 5.3 µM | 3.1 µM | 16.6 µM | 64 µM | 130 µM
Brc1ccc(-c2cnc(NCCCCCCCNc3ncc(-c4ccc(Br)cc4)[nH]3)[nH]2)cc1 | 19.1 µM | 300 µM | 50.4 µM | 252 µM | 122 µM | > 800 µM | 217 µM
Nc1ncc(-c2ccc(Cl)cc2)[nH]1 | 18 µM | 121 µM |  |  |  |  | 
Nc1ncc(-c2ccc(F)cc2)n1CCCCn1c(-c2ccc(F)cc2)cnc1N | 25.4 µM | 24.4 µM | 11.4 µM | 11.1 µM | 77.3 µM | 50 µM | 27 µM
Nc1ncc(-c2ccc(F)cc2)n1CCCn1c(-c2ccc(F)cc2)cnc1N | 7.5 µM | 171 µM | 7.4 µM | 11.6 µM | 10.7 µM | 103 µM | 124 µM
Clc1ccc(-c2cnc(NCCCCCNc3ncc(-c4ccc(Cl)cc4)[nH]3)[nH]2)cc1 | 12 µM | 94.4 µM | 3.8 µM | 6 µM | 224 µM | 15.2 µM | 90.2 µM
Nc1ncc(-c2ccc(F)cc2)n1CCCCCCCCn1c(-c2ccc(F)cc2)cnc1N | 7 µM | 22.4 µM | 1.5 µM | 12.2 µM | 7.13 µM | 100 µM | 11.7 µM
Nc1ncc(-c2ccc(Br)cc2)n1CCCCCCn1c(-c2ccc(Br)cc2)cnc1N | 8.2 µM | 11.2 µM | 8.4 µM | 5.8 µM | > 400 µM | > 400 µM | 11.1 µM
Nc1ncc(-c2ccc(Br)cc2)[nH]1 | 8.8 µM | 152 µM |  |  |  |  | 
Nc1ncc(-c2ccccc2)[nH]1 | 146 µM | > 800 µM |  |  |  |  | 

The next compounds have a lower IC50 (Escherichia coli [2]) than those just listed; values first:

IC50 (Escherichia coli [2]) | IC50 (Staphylococcus aureus [3]) | IC50 (Salmonella typhimurium [5]) | IC50 (Pseudomonas aeruginosa) | SMILES | IC50 (Escherichia coli [1]) | IC50 (Salmonella typhimurium [4]) | IC50 (Staphylococcus aureus [6])
4.9 µM | 13 µM | 2.7 µM | 5.6 µM | Clc1ccc(-c2cnc(NCCCNc3ncc(-c4ccc(Cl)cc4)[nH]3)[nH]2)cc1 | 14.7 µM | 11.4 µM | 23.5 µM
2.9 µM | 51.3 µM | 3 µM | 4 µM | Nc1ncc(-c2ccccc2)n1CCCCCCn1c(-c2ccccc2)cnc1N | > 800 µM | 100 µM | 53.8 µM
0.8 µM | 2.8 µM | 7.7 µM | 4.5 µM | Nc1ncc(-c2ccc(Br)cc2)n1CCCCCCCCn1c(-c2ccc(Br)cc2)cnc1N | 2.99 µM | > 400 µM | 2 µM
6.4 µM | 7.2 µM | 3.9 µM | 3.1 µM | Nc1ncc(-c2ccc(Br)cc2)n1CCCCn1c(-c2ccc(Br)cc2)cnc1N | 6.09 µM | 200 µM | 9.17 µM
2 µM | 99.4 µM | 14.2 µM | 23.7 µM | c1ccc(-c2cnc(NCCCCCCNc3ncc(-c4ccccc4)[nH]3)[nH]2)cc1 | 2.58 µM | 41.3 µM | 113 µM
5.2 µM | 180 µM | 4.6 µM | 1.2 µM | c1ccc(-c2cnc(NCCCCCNc3ncc(-c4ccccc4)[nH]3)[nH]2)cc1 | 19.9 µM | 59.6 µM | 108 µM
1.8 µM | 48 µM | 3.2 µM | 11.6 µM | Nc1ncc(-c2ccc(F)cc2)n1CCCCCCn1c(-c2ccc(F)cc2)cnc1N | > 800 µM | 23.8 µM | 34.4 µM
6.3 µM | 7.4 µM | 4 µM | 6.1 µM | Nc1ncc(-c2ccc(Br)cc2)n1CCCCCn1c(-c2ccc(Br)cc2)cnc1N | 6.7 µM | 35.9 µM | 8.76 µM
6.5 µM | 40.6 µM | 5.9 µM | 5.6 µM | Fc1ccc(-c2cnc(NCCCCNc3ncc(-c4ccc(F)cc4)[nH]3)[nH]2)cc1 | 4.55 µM | 46 µM | 144 µM
6.3 µM | 15 µM | 2.7 µM | 2.5 µM | Nc1ncc(-c2ccc(Br)cc2)n1CCCn1c(-c2ccc(Br)cc2)cnc1N | 9.93 µM | 11.5 µM | 22 µM
4 µM | 8.6 µM | 4.8 µM | 3.2 µM | Nc1ncc(-c2ccc(Cl)cc2)n1CCCCCCn1c(-c2ccc(Cl)cc2)cnc1N | > 400 µM | 300 µM | 7.4 µM
5.4 µM | 8.9 µM | 10.3 µM | 10.1 µM | Fc1ccc(-c2cnc(NCCCCCCNc3ncc(-c4ccc(F)cc4)[nH]3)[nH]2)cc1 | 5.52 µM | 23.8 µM | 28.7 µM
2.9 µM | 22.2 µM | 16.1 µM | 8.7 µM | Nc1ncc(-c2ccccc2)n1CCCCCCCCn1c(-c2ccccc2)cnc1N | 6.13 µM | > 400 µM | 15.3 µM
4.5 µM | 26.4 µM | 4.1 µM | 3.1 µM | Nc1ncc(-c2ccc(Cl)cc2)n1CCCn1c(-c2ccc(Cl)cc2)cnc1N | 7.56 µM | 11 µM | 26.4 µM
4.8 µM | 50 µM | 6.3 µM | 5.7 µM | Fc1ccc(-c2cnc(NCCCNc3ncc(-c4ccc(F)cc4)[nH]3)[nH]2)cc1 | 16.2 µM | 59.2 µM | 60.1 µM

— ChEMBL document CHEMBL4219072, “Enhancing the anti-biofilm activity of 5-aryl-2-aminoimidazoles through nature inspired dimerisation” (Bioorg Med Chem, 2018)
